Assays:
Kunming mice = settings: tail vein injection; for Median effective dose (ED50): disappearance of FRR; for disappearance time of FRR (onset time) / recovery time (recovery of FRR): during the determination of ED50; for anesthetic effect: in words
Description: Median effective doses (ED50) of propofol hydroxybutyrate phosphate disodium salt and Diprivan™ were determined by the up-and-down method. In the test, the mice were injected with the drugs through the tail veins, with the disappearance of the forepaw righting reflex (FRR) of the mice as a judgment index of the end point of anesthesia; the recovery of FRR of the mice as an index of recovery from anesthesia.
In the test, the mice were injected with the drugs through the tail veins, with the disappearance of the forepaw righting reflex (FRR) of the mice as a judgment index of the end point of anesthesia; the recovery of FRR of the mice as an index of recovery from anesthesia.

[1] = in words, prior-art prodrug of WO200213810; cited from earlier work
[2] = in words, prior-art prodrug of WO200213810; cited from earlier work; remark: listed apart in the source

Molecule	Median effective dose (ED50) (Kunming mice) [mg/kg]	disappearance time of FRR (onset time) (Kunming mice) [s]	recovery time (recovery of FRR) (Kunming mice) [s]	anesthetic effect (Kunming mice)	water solubility [1]	stability in aqueous solution [2]
propofol w-hydroxyvalerate phosphate disodium salt	152	180.8 ± 45.6	500.1 ± 114.6	definite and reversible anesthetic effect	–	–
CC(C)c1cccc(C(C)C)c1OC(=O)CCC(=O)[O-].[Na+] [propofol succinic acid monoester sodium salt]	–	–	–	–	high water-solubility	unstable in aqueous solution
propofol w-hydroxybutyrate phosphate disodium salt	130	150.6 ± 42.1	480.6 ± 124.3	definite and reversible anesthetic effect	–	–

Source: patent publication US9243009B2, “Phosphate ester compound of hydroxy acid substituted phenol ester, preparation method and medical use thereof” (West China Hospital, Sichuan University, priority 2010, dated 2016)
